Where a SMILES comes first, the peptide text is derived from it.
Experiments:
[1] = biological target: T1, 3H-CCK-8-(SO3H) binding, bovine striatum homogenate (Bos taurus, UniProt P79266); experiment: In vitro receptor binding assay, bovine striatum; conditions: 0.15 nM 3H-CCK-8-(SO3H), 30 min, 25° C.; read-out: Bovine Striatum IC50 (inhibition of specific 3H-CCK-8-(SO3H) binding)
T1 construct: tissue homogenate (striatum 0.26 mg protein in 2 ml final volume; pancreas 0.165 mg protein in 1 ml final volume); from tissue; host or cells: bovine striatum membrane homogenate
T1 sequence (P79266 1-454): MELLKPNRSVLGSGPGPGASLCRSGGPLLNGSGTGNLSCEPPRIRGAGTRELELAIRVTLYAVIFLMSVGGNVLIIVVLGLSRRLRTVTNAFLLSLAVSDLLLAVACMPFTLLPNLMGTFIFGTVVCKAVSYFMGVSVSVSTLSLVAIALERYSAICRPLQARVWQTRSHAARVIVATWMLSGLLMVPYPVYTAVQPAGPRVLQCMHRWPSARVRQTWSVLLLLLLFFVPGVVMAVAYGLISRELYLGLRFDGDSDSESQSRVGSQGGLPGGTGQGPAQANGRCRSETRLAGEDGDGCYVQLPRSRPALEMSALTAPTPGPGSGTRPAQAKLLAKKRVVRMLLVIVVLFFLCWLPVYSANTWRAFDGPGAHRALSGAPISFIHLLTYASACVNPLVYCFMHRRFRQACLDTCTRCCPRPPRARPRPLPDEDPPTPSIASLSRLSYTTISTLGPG
Description: (§1) The tissue was homogenized 2× for approx. 15 sec. at 0° C. using a Polytron homogenizer at a setting of 6. The tissue was isolated by centrifugation at 48,000×g for 10 min. at 0° C. […] Samples were incubated for 30 min. at 25° C. and the incubation terminated by pouring the mixture onto a pre-wet Whatman GF/B filter on a Sandbeck Vacuum Filtration Manifold. The incubation tubes were washed with 2×3 ml of ice-cold HEPES Buffer #2 and the wash filtered through the GF/B filter. The filter was air dried for 10 min. and then placed in a scintillation vial with 12 ml of Beckman HP/b Ready-Solv scintillation cocktail. The vials were shaken for 2-12 hours and then counted using a Beckman Model 7800 liquid scintillation spectrometer.

[2] = biological target: T2, 3H-CCK-8-(SO3H) binding, rat pancreas homogenate (Rattus norvegicus, UniProt P30551); experiment: In vitro receptor binding assay, rat pancreas; conditions: 0.15 nM 3H-CCK-8-(SO3H), 30 min, 25° C.; read-out: Rat Pancreas IC50 (inhibition of specific 3H-CCK-8-(SO3H) binding)
T2 construct: tissue homogenate (striatum 0.26 mg protein in 2 ml final volume; pancreas 0.165 mg protein in 1 ml final volume); from tissue; host or cells: rat pancreas membrane homogenate
T2 sequence (P30551 1-444): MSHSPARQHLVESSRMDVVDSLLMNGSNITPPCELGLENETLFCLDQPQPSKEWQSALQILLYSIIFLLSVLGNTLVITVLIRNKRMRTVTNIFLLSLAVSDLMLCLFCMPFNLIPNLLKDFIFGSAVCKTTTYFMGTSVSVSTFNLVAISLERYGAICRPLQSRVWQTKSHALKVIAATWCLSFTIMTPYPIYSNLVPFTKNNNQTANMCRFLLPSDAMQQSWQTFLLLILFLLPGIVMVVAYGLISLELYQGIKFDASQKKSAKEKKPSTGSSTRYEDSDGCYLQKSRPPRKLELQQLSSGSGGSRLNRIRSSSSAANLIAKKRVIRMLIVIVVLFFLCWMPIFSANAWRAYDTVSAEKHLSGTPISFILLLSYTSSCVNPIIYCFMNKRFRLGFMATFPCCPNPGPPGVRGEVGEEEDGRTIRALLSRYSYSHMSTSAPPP
Description: as §1

[3] = tested on: food intake of meal-trained male Sprague-Dawley (CD) rats; experiment: Two-meal feeding assay; format: in vivo, rat; conditions: dose 32 microgm/kg i.p. 15 min before first meal; mean ± SEM
Description: Male Sprague-Dawley (CD) rats weighing 180-200 grams (Charles River Breeding Laboratories) were acclimated to a 12 h light/dark cycle (6 a.m. to 6 p.m.) in a room kept at 22° C. They were subsequently fasted for two days, weighed, placed in individual cages, and a four-day period of meal training was begun. During this time the rats were given ground laboratory chow (Purina Lab Chow) in jars for one hour from 9:00 a.m. until 10:00 a.m., the jars were removed from 10:00 a.m. to 12:00 p.m., and placed back in the cages from 12:00 until 1:00 p.m. Under this `1-2-1` meal feeding regime, most rats learn to eat approximately as much per day during the two hours they have access to food as rats which have food ad libitum over the entire 24-hour day. On the fourth day, the rats were weighed again, and any which lost more than five grams body weight were excluded from the test. The animals were then distributed into experimental (n=5 to 6) and control groups (n=6-12), but not matched for body weight.
Peptides of the invention were suspended either in saline, if soluble, or in 1% gum arabic, if insoluble, at concentrations of 32 to 320 μg/ml/kg body weight and were administered intraperitonerally 15 min before the first meal on day 5 of meal feeding. […] Food intake was expressed as a mean and standard error of the mean as a percent of control values for the various groups. […]

[4] = tested on: food intake in lean and obese men; conditions: infusions in lean and obese men; cited from earlier work
in vitro = conditions: human, real gastrointestinal fluid or homogenate
Description: The degradation was monitored by analytical HPLC on a micro Bondapack (C18 column (0.4×30 cm) with a linear gradient of 10-40% of 0.01M NH4 Ac/CH3 CN in 40 min. with a flow rate of 2 ml/min and detection at 225 nm.

Compound	IC50 [1] [nM]	IC50 [2] [nM]	Food Intake 1st Meal [3]	Food Intake 2nd Meal [3]	Effect of infusion on food intake [4]	metabolised at 0.25 h, 0.5 mg/mL (in vitro) [%]	metabolised at 1 h, 0.5 mg/mL (in vitro) [%]
CSCC[C@@H]1NC(=O)[C@H](Cc2c[nH]c3ccccc23)NC(=O)CNC(=O)[C@@H](NC(=O)[C@H](Cc2ccc(OS(=O)(=O)O)cc2)NC(C)=O)CCCCNC(=O)C[C@@H](C(=O)N[C@@H](Cc2ccccc2)C(N)=O)NC1=O (HELM PEPTIDE1{[ac].[O=C([C@H](Cc1ccc(OS(=O)(=O)O)cc1)N[*:1])[*:2]].K.G.W.M.D.F.[am]}$PEPTIDE1,PEPTIDE1,3:R3-7:R3$$$V2.0)	> 1000	45					
CCCC[C@@H]1NC(=O)[C@H](Cc2c[nH]c3ccccc23)NC(=O)CNC(=O)[C@@H](NC(=O)[C@H](Cc2ccc(OS(=O)(=O)O)cc2)NC(C)=O)CCCCNC(=O)C[C@@H](C(=O)N(C)[C@@H](Cc2ccccc2)C(N)=O)NC1=O (HELM PEPTIDE1{[ac].[O=C([C@H](Cc1ccc(OS(=O)(=O)O)cc1)N[*:1])[*:2]].K.G.W.[Nle].D.[meF].[am]}$PEPTIDE1,PEPTIDE1,3:R3-7:R3$$$V2.0)	> 1000	6600					
CSCC[C@@H]1NC(=O)[C@H](Cc2c[nH]c3ccccc23)NC(=O)CNC(=O)[C@@H](NC(=O)[C@H](Cc2ccc(OS(=O)(=O)O)cc2)NC(C)=O)CCCNC(=O)C[C@@H](C(=O)N(C)[C@@H](Cc2ccccc2)C(N)=O)NC1=O (HELM PEPTIDE1{[ac].[O=C([C@H](Cc1ccc(OS(=O)(=O)O)cc1)N[*:1])[*:2]].[Orn].G.W.M.D.[meF].[am]}$PEPTIDE1,PEPTIDE1,3:R3-7:R3$$$V2.0)	52000	13000					
CSCC[C@H](NC(=O)[C@H](Cc1ccc(OS(=O)(=O)O)cc1)NC(=O)[C@@H](N)CC(=O)O)C(=O)NCC(=O)N[C@@H](Cc1c[nH]c2ccccc12)C(=O)N[C@@H](CCSC)C(=O)N[C@@H](CC(=O)O)C(=O)N[C@@H](Cc1ccccc1)C(N)=O [CCK-8, H-Asp-Tyr-(SO3 H)-Met-Gly-Trp-Met-Asp-Phe-NH2]	1 to 4.6	1 to 3.2	27 ± 17 % of Control	149 ± 6 % of Control	decrease food intake	90	100
CSCC[C@@H]1NC(=O)[C@H](Cc2c[nH]c3ccccc23)NC(=O)CNC(=O)[C@@H](NC(=O)[C@H](Cc2ccc(OS(=O)(=O)O)cc2)NC(C)=O)CCCCNC(=O)C[C@@H](C(=O)N(C)[C@@H](Cc2ccccc2)C(N)=O)NC1=O [Example 1] (HELM PEPTIDE1{[ac].[O=C([C@H](Cc1ccc(OS(=O)(=O)O)cc1)N[*:1])[*:2]].K.G.W.M.D.[meF].[am]}$PEPTIDE1,PEPTIDE1,3:R3-7:R3$$$V2.0)	3000	1500					1.4
CSCC[C@@H]1NC(=O)[C@H](Cc2ccc(OS(=O)(=O)O)cc2)NC(=O)CC[C@@H](C(=O)N[C@H](C(=O)N(C)[C@@H](Cc2ccccc2)C(N)=O)[C@@H](C)OS(=O)(=O)O)NC(=O)[C@H](Cc2c[nH]c3ccccc23)NC(=O)CNC1=O [Example 3] (HELM PEPTIDE1{[O=C([C@H](Cc1ccc(OS(=O)(=O)O)cc1)N[*:1])[*:2]].M.G.W.E.[C[C@@H](OS(=O)(=O)O)[C@H](N[*:1])C(=O)[*:2]].[meF].[am]}$PEPTIDE1,PEPTIDE1,1:R1-5:R3$$$V2.0)	> 10000	> 10000					
